# From patent US9708316B2 (BRISTOL-MYERS SQUIBB COMPANY, priority 2014, dated 2017)
# Columns and labels:
# HIS-TGFβR2 WT = HIS-TGFβR2 WT (Homo sapiens, UniProt P37173); assay: HTRF probe-displacement assay, HIS-TGFβR2 WT; assay type: binding
# HIS-TGFβR1 T204D = target: T1, HIS-TGFβR1 T204D (Homo sapiens, UniProt P36897, T204D); assay: HTRF probe-displacement assay, HIS-TGFβR1 T204D; assay type: binding; conditions: read-out: TGFβR1 (μM) IC50
# T1 sequence (P36897 34-503 T204D): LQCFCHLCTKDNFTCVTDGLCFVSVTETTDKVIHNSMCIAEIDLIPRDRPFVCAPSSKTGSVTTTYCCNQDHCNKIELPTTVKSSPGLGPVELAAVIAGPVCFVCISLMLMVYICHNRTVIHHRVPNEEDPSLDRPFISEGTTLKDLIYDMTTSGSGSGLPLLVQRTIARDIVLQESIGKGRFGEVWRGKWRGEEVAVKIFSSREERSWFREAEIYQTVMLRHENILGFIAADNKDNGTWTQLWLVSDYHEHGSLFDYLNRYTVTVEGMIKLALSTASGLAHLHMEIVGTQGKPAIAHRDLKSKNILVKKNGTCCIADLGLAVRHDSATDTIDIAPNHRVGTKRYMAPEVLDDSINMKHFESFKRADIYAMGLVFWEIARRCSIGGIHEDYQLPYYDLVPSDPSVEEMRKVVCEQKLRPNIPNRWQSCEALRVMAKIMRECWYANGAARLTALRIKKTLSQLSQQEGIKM
# HIS-TGFβR2 WT, sequence (P37173 23-567): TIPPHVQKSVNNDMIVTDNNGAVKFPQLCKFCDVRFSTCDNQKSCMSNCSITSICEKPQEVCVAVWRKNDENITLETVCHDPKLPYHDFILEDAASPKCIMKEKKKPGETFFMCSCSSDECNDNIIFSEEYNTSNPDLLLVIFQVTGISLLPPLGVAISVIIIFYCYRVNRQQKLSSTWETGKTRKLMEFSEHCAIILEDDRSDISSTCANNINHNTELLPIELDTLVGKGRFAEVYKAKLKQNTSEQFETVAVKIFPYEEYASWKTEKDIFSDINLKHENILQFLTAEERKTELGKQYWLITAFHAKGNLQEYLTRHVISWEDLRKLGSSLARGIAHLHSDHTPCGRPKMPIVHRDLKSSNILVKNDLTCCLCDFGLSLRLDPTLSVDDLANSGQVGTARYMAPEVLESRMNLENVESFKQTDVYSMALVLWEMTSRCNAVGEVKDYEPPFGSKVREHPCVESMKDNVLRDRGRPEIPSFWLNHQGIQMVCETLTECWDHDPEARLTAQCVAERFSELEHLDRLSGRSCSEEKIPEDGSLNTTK
SMILES,IC50 (HIS-TGFβR2 WT),IC50 (HIS-TGFβR1 T204D)
"CC(=O)Nc1cc(-c2c(-c3cccc(C(F)F)n3)c3ncccc3n2CC(N)=O)ccn1 [Example 114, 2-(2-(2-Acetamidopyridin-4-yl)-3-(6-(difluoromethyl)pyridin-2-yl)-1H-pyrrolo[3,2-b]pyridin-1-yl)acetamide]",> 15 µM,0.55 µM
"COc1ccc(-c2c(-c3ccnc(NC(=O)CN4CCOCC4)c3)[nH]c3cc(Cl)cnc23)nc1 [Example 250, N-(4-(6-Chloro-3-(5-methoxypyridin-2-yl)-1H-pyrrolo[3,2-b]pyridin-2-yl)pyridin-2-yl)-2-morpholinoacetamide]",> 15 µM,0.007 µM
"COc1cnc2c(-c3ccc(C(F)F)cn3)c(-c3ccnc(NC(C)=O)c3)[nH]c2c1 [Example 110, N-(4-(3-(5-(Difluoromethyl)pyridin-2-yl)-6-methoxy-1H-pyrrolo[3,2-b]pyridin-2-yl)pyridin-2-yl)acetamide]",> 15 µM,0.053 µM
"COc1ccc(-c2c(-c3ccnc(NC(C)=O)c3)[nH]c3c(Cl)ccnc23)cn1 [Example 271, N-(4-(7-Chloro-3-(6-methoxypyridin-3-yl)-1H-pyrrolo[3,2-b]pyridin-2-yl)pyridin-2-yl)acetamide]",0.352 µM,0.002 µM
"COc1ccc(-c2c(-c3ccnc(NC(C)=O)c3)[nH]c3cccnc23)nc1Cl [Example 192, N-(4-(3-(6-Chloro-5-methoxypyridin-2-yl)-1H-pyrrolo[3,2-b]pyridin-2-yl)pyridin-2-yl)acetamide]",> 15 µM,0.11 µM
"COc1ccc(-c2c(-c3ccnc(NC(=O)CN4CCS(=O)(=O)CC4)c3)[nH]c3cc(OC)cnc23)nc1 [Example 118, 2-(1,1-Dioxidothiomorpholino)-N-{4-[6-methoxy-3-(5-methoxypyridin-2-yl)-1H-pyrrolo[3,2-b]pyridin-2-yl]pyridin-2-yl}acetamide]",> 15 µM,0.002 µM
"CC(=O)Nc1cc(-c2[nH]c3cc(C)cnc3c2-c2nc(C#N)cs2)ccn1 [Example 224, N-(4-(3-(4-Cyanothiazol-2-yl)-6-methyl-1H-pyrrolo[3,2-b]pyridin-2-yl)pyridin-2-yl)acetamide]",0.544 µM,0.0012 µM
"CCCNCc1cnc2c(-c3ccc(OC)cn3)c(-c3ccnc(NC(C)=O)c3)[nH]c2c1 [Example 294, N-(4-(3-(5-methoxypyridin-2-yl)-6-((propylamino)methyl)-1H-pyrrolo[3,2-b]pyridin-2-yl)pyridin-2-yl)acetamide]",> 15 µM,0.063 µM
"CC(=O)Nc1cc(-c2[nH]c3cc(Cl)cnc3c2-c2ccc(OC(C)C)cn2)ccn1 [Example 254, N-(4-(6-Chloro-3-(5-isopropoxypyridin-2-yl)-1H-pyrrolo[3,2-b]pyridin-2-yl)pyridin-2-yl)acetamide]",> 15 µM,0.065 µM
"COc1ccc(-c2c(-c3ccnc(N)c3)[nH]c3cc(Cl)cnc23)cn1 [Example 289, 4-(6-Chloro-3-(6-methoxypyridin-3-yl)-1H-pyrrolo[3,2-b]pyridin-2-yl)pyridin-2-amine]",0.794 µM,0.002 µM
"CC(=O)N1CCN(CC(=O)Nc2cc(-c3[nH]c4cc(Cl)cnc4c3-c3ccc(F)cn3)ccn2)CC1 [Example 248, 2-(4-Acetylpiperazin-1-yl)-N-(4-(6-chloro-3-(5-fluoropyridin-2-yl)-1H-pyrrolo[3,2-b]pyridin-2-yl)pyridin-2-yl)acetamide]",14.5 µM,0.002 µM
"COc1ccc(-c2c(-c3ccnc(NC(C)=O)c3)[nH]c3c(OC)ccnc23)nc1 [Example 266, N-(4-(7-Methoxy-3-(5-methoxypyridin-2-yl)-1H-pyrrolo[3,2-b]pyridin-2-yl)pyridin-2-yl)acetamide]",> 15 µM,0.005 µM
"COc1cnc2c(-c3ccc(OC)nc3)c(-c3ccnc(NC(C)=O)c3)[nH]c2c1 [Example 285, N-(4-(6-Methoxy-3-(6-methoxypyridin-3-yl)-1H-pyrrolo[3,2-b]pyridin-2-yl)pyridin-2-yl)acetamide]",0.016 µM,0.002 µM
"COc1ccc(-c2c(-c3ccnc(NC(=O)CN4CCN(C)CC4)c3)[nH]c3cccnc23)cn1 [Example 287, N-(4-(3-(6-Methoxypyridin-3-yl)-1H-pyrrolo[3,2-b]pyridin-2-yl)pyridin-2-yl)-2-(4-methylpiperazin-1-yl)acetamide]",0.668 µM,0.001 µM
"COC(=O)Nc1cc(-c2[nH]c3cccnc3c2-c2ccc(OC)nc2)ccn1 [Example 84, Methyl N-{4-[3-(6-methoxypyridin-3-yl)-1H-pyrrolo[3,2-b]pyridin-2-yl]pyridin-2-yl}carbamate]",0.13 µM,0.002 µM
"CC(=O)Nc1cc(-c2[nH]c3cccnc3c2-c2nccc(Cl)n2)ccn1 [Example 197, N-(4-(3-(4-Chloropyrimidin-2-yl)-1H-pyrrolo[3,2-b]pyridin-2-yl)pyridin-2-yl)acetamide]",> 15 µM,3.54 µM
"COc1ccc(-c2c(-c3ccnc(NC(C)=O)c3)[nH]c3c(C(C)=O)ccnc23)cn1 [Example 298, N-(4-(7-Acetyl-3-(6-methoxypyridin-3-yl)-1H-pyrrolo[3,2-b]pyridin-2-yl)pyridin-2-yl)acetamide]",0.12 µM,0.008 µM
"CNC(=O)c1cc(Cl)nc2c(-c3ccc(OC)nc3)c(-c3ccnc(NC(C)=O)c3)[nH]c12 [Example 56, 5-Chloro-2-(2-acetamidopyridin-4-yl)-3-(6-methoxypyridin-3-yl)-N-methyl-1H-pyrrolo[3,2-b]pyridine-7-carboxamide]",1.1 µM,0.017 µM
"CC(=O)Nc1cc(-c2[nH]c3c(CO)ccnc3c2-c2nc(C)cs2)ccn1 [Example 214, N-(4-(7-(hydroxymethyl)-3-(4-methylthiazol-2-yl)-1H-pyrrolo[3,2-b]pyridin-2-yl)pyridin-2-yl)acetamide]",0.173 µM,0.0014 µM
"COc1ccc(-c2c(-c3ccnc(NC(C)=O)c3)[nH]c3c(C(C)(C)O)ccnc23)cn1 [Example 299, N-(4-(7-(2-Hydroxypropan-2-yl)-3-(6-methoxypyridin-3-yl)-1H-pyrrolo[3,2-b]pyridin-2-yl)pyridin-2-yl)acetamide]",0.038 µM,0.002 µM
"COc1ccc(-c2c(-c3ccnc(NC(C)=O)c3)[nH]c3cc(N4CCC[C@@H]4CO)cnc23)nc1 [Example 163, (R)-N-(4-(6-(2-(Hydroxymethyl)pyrrolidin-l-yl)-3-(5-methoxypyridin-2-yl)-1H-pyrrolo[3,2-b]pyridin-2-yl)pyridin-2-yl)acetamide]",> 15 µM,0.0304 µM
"CC(=O)Nc1cc(-c2[nH]c3cccnc3c2-c2ccc(Cl)c(C)n2)ccn1 [Example 33, N-{4-[3-(5-Chloro-6-methylpyridin-2-yl)-1H-pyrrolo[3,2-b]pyridin-2-yl]pyridin-2-yl}acetamide]",> 15 µM,0.005 µM
"CC(=O)Nc1cc(-c2[nH]c3cc(Cl)cnc3c2-c2cccc(OC(C)C)n2)ccn1 [Example 255, N-(4-(6-Chloro-3-(6-isopropoxypyridin-2-yl)-1H-pyrrolo[3,2-b]pyridin-2-yl)pyridin-2-yl)acetamide]",> 15 µM,0.433 µM
"COc1cnc2c(-c3ncc(C)s3)c(-c3ccnc(NC(C)=O)c3)[nH]c2c1 [Example 209, N-(4-(6-Methoxy-3-(5-methylthiazol-2-yl)-1H-pyrrolo[3,2-b]pyridin-2-yl)pyridin-2-yl)acetamide]",0.218 µM,0.0009 µM
